Tests used:
[1] = tested on: HT-1080-FAP tumor xenografts; assay: Organ distribution ex vivo in HT-1080-FAP tumor bearing nude mice; parameters: species or system mouse
Procedure: (§1) For in vivo experiments, 8 week old BALB/c nu/nu mice (Charles River) were subcutaneously inoculated into the right trunk with 5×10^6 with HT-1080-FAP, Capan-2 or SK-LMS-1 cells, respectively. When the size of the tumor reached approximately 1 cm^3, the radiolabeled compound was injected via the tail vein (˜10 MBq for small-animal PET imaging; ˜1 MBq for organ distribution). PET imaging was performed up to 140 min after intravenous injection of 1 MBq of Ga-68 labeled compound per mouse using the Inveon PET small-animal PET scanner (Siemens). Images were reconstructed iteratively using the 3D-OSEM+MAP method and were converted to standardized uptake value (SUV) images. Quantification was done using a ROI technique and expressed as SUV mean. For organ distribution of Lu-177 labeled compound (approx. […] per mouse), the animals (n=3 for each time point) were sacrificed after indicated time points (from 30 min to 24 h). The distributed radioactivity was measured in all dissected organs and in blood using a γ-counter (Cobra Autogamma, Packard). The values are expressed as percentage of injected dose per gram of tissue (% ID/g).

human CD26 = human CD26 (Homo sapiens (Human), UniProt P27487); assay: Radioligand binding to CD26 expressing cells (HEK-CD26); details: 60 min incubation
Chain of human CD26 (P27487 whole entry): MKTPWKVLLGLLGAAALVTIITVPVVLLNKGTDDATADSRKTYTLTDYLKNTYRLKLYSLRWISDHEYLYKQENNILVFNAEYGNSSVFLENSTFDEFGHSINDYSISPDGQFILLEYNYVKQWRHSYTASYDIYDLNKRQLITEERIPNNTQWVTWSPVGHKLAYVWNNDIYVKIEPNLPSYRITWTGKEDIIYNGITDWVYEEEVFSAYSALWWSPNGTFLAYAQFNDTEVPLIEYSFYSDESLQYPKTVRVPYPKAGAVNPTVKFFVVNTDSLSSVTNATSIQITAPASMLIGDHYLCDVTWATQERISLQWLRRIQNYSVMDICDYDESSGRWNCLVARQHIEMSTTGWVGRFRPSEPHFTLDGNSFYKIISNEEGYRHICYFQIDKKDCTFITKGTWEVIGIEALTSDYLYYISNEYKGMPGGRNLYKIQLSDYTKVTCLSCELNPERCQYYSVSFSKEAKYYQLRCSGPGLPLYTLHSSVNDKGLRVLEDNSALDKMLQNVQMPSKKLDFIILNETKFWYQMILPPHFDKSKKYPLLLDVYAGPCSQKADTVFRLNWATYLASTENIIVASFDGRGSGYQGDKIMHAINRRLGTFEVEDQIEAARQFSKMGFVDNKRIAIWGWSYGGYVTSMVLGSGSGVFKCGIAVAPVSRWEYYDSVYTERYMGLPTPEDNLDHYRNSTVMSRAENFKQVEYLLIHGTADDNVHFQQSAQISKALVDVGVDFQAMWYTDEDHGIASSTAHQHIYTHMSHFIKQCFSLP
Procedure: In vitro binding studies were performed using the human tumor cell lines BxPC3, Capan-2, MCF-7 (purchased from Sigma Aldrich Chemie GmbH) and SK-LMS-1 (purchased from ATCC) as well as stably transfected FAP-cell lines HT-1080-FAP, HEK-muFAP and the CD26 expressing cell line HEK-CD26 (obtained from Stefan Bauer, NCT Heidelberg). All cells were cultivated in Dulbecco's modified Eagle's medium (DMEM) containing 10% fetal calf serum at 37° C./5% carbon dioxide. For fluorescence internalization experiments, cells were seeded on coverslips and stained with FAPI-02-Atto488 and DAPI for cell nucleus staining. Images were acquired on a laser scanning confocal microscope using a 63× oil immersion objective.
For radioligand binding studies, cells were seeded in 6-well plates and cultivated for 48 h to a final confluence of approx. 80-90% (1.2-2 mio cells/well). The medium was replaced by 1 mL fresh medium without fetal calf serum. The radiolabeled compound was added to the cell culture and incubated for different time intervals ranging from 10 min to 24 h. Competition experiments were performed by simultaneous exposure to unlabeled (10^−5 M to 10^−9 M) and radiolabeled compound for 60 min. […] Radioactivity was determined in a γ-counter (Cobra II, Packard), normalized to 1 mio cells and calculated as percentage of the applied dose (% ID). […]

HT-1080-FAP cells = assay: Efflux experiments in HT-1080-FAP cells; format: cell-based, human; details: after 24 h in compound-free medium
Capan-2 tumor xenografts = assay: Dynamic small-animal PET, two-tissue compartment model, Capan-2 xenografts; format: in vivo, mouse; details: 68Ga-FAPI-02, Capan-2, − comp.
Procedure: as §1
For pharmakokinetic modeling the transport constant K1 and the rate constants k2-k4 were calculated using a two-tissue compartment model implemented in the PMOD software, taking into account the vascular fraction (vB), which is associated with the volume of blood exchanging with tissue in a VOI. The rate constants that describe the compartmental fluxes include k1 (binding to the receptor), k2 (detachment) as well as k3 (internalization) and k4 (efflux) in the tumor tissue. In this model the fractional volume of distribution (DV=K1/k2) is the proportion of the region of interest in which […] is distributed.

[2] = Preliminary dosimetry estimate in patients; format: in vivo, human
[3] = Lu-177 labeled, 1 h after i.v., HT-1080-FAP, mean ± SD, n = 3

highest enrichment within the FAP-expressing tumor ([1]; 177Lu labeled, after 1 h): 4.5 % ID/g | Tumor uptake 1 h ([1]; HT-1080-FAP tumor bearing nude mice, 1 h, mean ± SD, n = 3): 4.5 ± 0.82 % ID/g | Tumor uptake 4 h ([1]; HT-1080-FAP tumor bearing nude mice, 4 h, mean ± SD, n = 3): 4.0 ± 0.56 % ID/g | Tumor uptake 24 h ([1]; HT-1080-FAP tumor bearing nude mice, 24 h, mean ± SD, n = 3): 1.12 ± 0.13 % ID/g | Blood uptake [1, 3]: 1.20 ± 0.178 % ID/g | Brain uptake [1, 3]: 0.06 ± 0.006 % ID/g | Heart uptake [1, 3]: 0.56 ± 0.085 % ID/g | Intestines uptake [1, 3]: 0.31 ± 0.046 % ID/g | Kidneys uptake [1, 3]: 1.60 ± 0.075 % ID/g | Liver uptake [1, 3]: 0.45 ± 0.074 % ID/g | Lungs uptake [1, 3]: 1.02 ± 0.152 % ID/g | Muscle uptake [1, 3]: 1.17 ± 0.332 % ID/g | Spleen uptake [1, 3]: 0.38 ± 0.051 % ID/g | Tumor uptake [1, 3]: 4.51 ± 0.816 % ID/g | binding to CD26 expressing cells (% ID) (human CD26): 0.13±0.01% | Flux (Capan-2 tumor xenografts): 0.03 ml/ccm/min | Vs (ratio of specific binding concentration to total parent at equilibrium) (Capan-2 tumor xenografts): 0.93 ml/ccm | Vt (total distribution volume) (Capan-2 tumor xenografts): 1.44 ml/ccm | k1 (Capan-2 tumor xenografts): 0.08 ml/ccm/min | k2 (Capan-2 tumor xenografts): 0.16 min⁻¹ | k3 (Capan-2 tumor xenografts): 0.08 min⁻¹ | k4 (Capan-2 tumor xenografts): 0.05 min⁻¹ | vB (vascular fraction) (Capan-2 tumor xenografts): 0.08 l/l | equivalent dose of an exam ([2]; 200 MBq Ga-68): 3-4 mSv | effective dose ([2]; calculated with IDAC1/ICRP60): 1.82E-02 mSv/MBq | effective dose ([2]; calculated with IDAC2/ICRP103): 1.79E-02 mSv/MBq | effective dose ([2]; calculated with OLINDA): 1.80E-02 mSv/MBq
Compound: N#C[C@@H]1CCCN1C(=O)CNC(=O)c1ccnc2ccc(OCCCN3CCN(C(=O)CN4CCN(CC(=O)O)CCN(CC(=O)O)CCN(CC(=O)O)CC4)CC3)cc12 [FAPI-02]
retention of the originally accumulated radioactivity (efflux) (HT-1080-FAP cells): 12%
